Measured values as given in patent US20060069132A1, “Azolecarboxamide herbicides” (priority 2004, published 2006).

Tests used:
barnyardgrass = test: Test C flooded paddy test; type: in vivo, Echinochloa crus-galli
Summary of the method: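 Scoring by eye, 12–14 days post-treatment, greenhouse-held plants vs. controls; 0 no effect, 100 complete control. Sprayed at 1–4 leaves (2–18 cm); paddy barnyardgrass at 2 leaves, flooded.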

pigweed = test: Test C pre-/postemergence herbicide test; type: in vivo, Amaranthus retroflexus
Summary of the method: (§1)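 Visual injury scores run from 0 (no effect) to 100 (complete control), assessed relative to untreated controls 12 to 14 days after treatment in the greenhouse. Chemicals were formulated in a non-phytotoxic solvent mixture with surfactant and applied to soil after planting or to emerged plants at the 1- to 4-leaf stage.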

cocklebur = test: Test C pre-/postemergence herbicide test; type: in vivo, Xanthium strumarium
Summary of the method: as §1

[1] = test system: smallflower umbrella sedge; test: Test C flooded paddy test; type: in vivo, Cyperus difformis
soybean = test: Test C pre-/postemergence herbicide test; type: in vivo, Glycine max
Summary of the method: as §1

giant foxtail = test: Test C pre-/postemergence herbicide test; type: in vivo, Setaria faberi
Summary of the method: as §1

yellow nutsedge = test: Test C pre-/postemergence herbicide test; type: in vivo, Cyperus esculentus
Summary of the method: as §1

[2] = test system: common (oilseed) sunflower; test: Test C pre-/postemergence herbicide test; type: in vivo, Helianthus annuus
Summary of the method: as §1

morningglory = test: Test C pre-/postemergence herbicide test; type: in vivo, Ipomoea coccinea; design: key to Plant response rating, Morningglory: 0 = no effect, 100 = complete control
Summary of the method: as §1

bermudagrass = test: Test C pre-/postemergence herbicide test; type: in vivo, Cynodon dactylon
Summary of the method: as §1

velvetleaf = test: Test C pre-/postemergence herbicide test; type: in vivo, Abutilon theophrasti
Summary of the method: as §1

[3] = 125 g ai/ha, scale 0 to 100 (0 no effect, 100 complete control)
[4] = 250 g ai/ha, scale of 0 to 100, 0 is no effect, 100 is complete control
[5] = 500 g ai/ha, visual rating after 12 to 14 days, scale 0 to 100 (0 no effect, 100 complete control)
[6] = 62 g ai/ha, preemergence, scale 0 to 100
[7] = 250 g ai/ha, scale 0-100, preemergence
[8] = 500 g ai/ha, scale 0 to 100 (0 no effect, 100 complete control), visual, 12 to 14 days, preemergence

SMILES: CCNC(=O)c1ccc(F)c(NC(=O)C2CN(C(C)(C)C)N=C2CC)c1 (stereo not shown) [Compound 336, 1-(1,1-dimethylethyl)-3-ethyl-N-[5-[(ethylamino)carbonyl]-2-fluorophenyl]-4,5-dihydro-1H-pyrazole-4-carboxamide]
- pest or weed control at 62 g/ha (barnyardgrass; Echinochloa crus-galli, 62 g ai/ha, scale 0 to 100 (0 no effect, 100 complete control), read-out: Barnyardgrass plant response rating): 0%
- pest or weed control at 125 g/ha (barnyardgrass; Echinochloa crus-galli, 125 g ai/ha, scale 0 to 100 (0 no effect, 100 complete control), read-out: Barnyardgrass plant response rating): 0%
- pest or weed control at 250 g/ha (barnyardgrass; Echinochloa crus-galli, 250 g ai/ha, scale of 0 to 100, 0 is no effect, 100 is complete control, read-out: Barnyardgrass plant response rating): 60%
- pest or weed control at 500 g/ha (barnyardgrass; Echinochloa crus-galli, 500 g ai/ha, visual rating after 12 to 14 days, scale 0 to 100 (0 no effect, 100 complete control), read-out: Plant response rating, Barnyardgrass): 80%
- pest or weed control at 62 g/ha (pigweed; Amaranthus retroflexus, pre-emergence, 62 g ai/ha, preemergence, scale 0 to 100, read-out: Plant response rating, Pigweed): 100%
- pest or weed control at 125 g/ha (pigweed; Amaranthus retroflexus, pre-emergence, 125 g ai/ha, scale 0 (no effect) to 100 (complete control), visual, 12 to 14 days, read-out: Plant response rating, Pigweed): 100%
- pest or weed control at 250 g/ha (pigweed; Amaranthus retroflexus, pre-emergence, 250 g ai/ha, scale 0-100, read-out: Plant response rating, Pigweed): 100%
- pest or weed control at 500 g/ha (pigweed; Amaranthus retroflexus, pre-emergence, 500 g ai/ha, scale 0 to 100 (0 no effect, 100 complete control), visual, 12 to 14 days, read-out: Plant response rating, Pigweed): 100%
- pest or weed control at 62 g/ha (cocklebur; Xanthium strumarium, pre-emergence, 312 h, 62 g ai/ha, preemergence, scale 0 to 100, read-out: Plant response rating, Cocklebur): 0%
- pest or weed control at 125 g/ha (cocklebur; Xanthium strumarium, pre-emergence, 312 h, 125 g ai/ha, scale 0 (no effect) to 100 (complete control), visual, 12 to 14 days, read-out: Plant response rating, Cocklebur): 5%
- pest or weed control at 250 g/ha (cocklebur; Xanthium strumarium, pre-emergence, 312 h, 250 g ai/ha, scale 0-100, read-out: Plant response rating, Cocklebur): 30%
- pest or weed control at 500 g/ha (cocklebur; Xanthium strumarium, pre-emergence, 312 h, 500 g ai/ha, scale 0 to 100 (0 no effect, 100 complete control), visual, 12 to 14 days, read-out: Plant response rating, Cocklebur): 50%
- pest or weed control at 62 g/ha ([1]; Cyperus difformis, 62 g ai/ha, scale 0 to 100, read-out: Sedge, Umbrella plant response rating): 25%
- pest or weed control at 125 g/ha ([1]; Cyperus difformis, 125 g ai/ha, scale 0 to 100 (0 no effect, 100 complete control), read-out: Sedge, Umbrella plant response rating): 80%
- pest or weed control at 250 g/ha ([1]; Cyperus difformis, 250 g ai/ha, scale of 0 to 100, 0 is no effect, 100 is complete control, read-out: Sedge, Umbrella plant response rating): 85%
- pest or weed control at 500 g/ha ([1]; Cyperus difformis, 500 g ai/ha, visual rating after 12 to 14 days, scale 0 to 100 (0 no effect, 100 complete control), read-out: Plant response rating, Sedge, Umbrella): 90%
- plant injury at 62 g/ha (soybean; Glycine max, pre-emergence, 62 g ai/ha, preemergence, scale 0 to 100, read-out: Plant response rating, Soybean): 0%
- plant injury at 250 g/ha (soybean; Glycine max, pre-emergence, 250 g ai/ha, scale 0-100, read-out: Plant response rating, Soybean): 50%
- plant injury at 500 g/ha (soybean; Glycine max, pre-emergence, 500 g ai/ha, scale 0 to 100 (0 no effect, 100 complete control), visual, 12 to 14 days, read-out: Plant response rating, Soybean): 100%
- pest or weed control at 62 g/ha (giant foxtail; Setaria faberi, pre-emergence, 312 h, 62 g ai/ha, preemergence, scale 0 to 100, read-out: Plant response rating, Foxtail, Giant): 0%
- pest or weed control at 125 g/ha (giant foxtail; Setaria faberi, pre-emergence, 312 h, 125 g ai/ha, scale 0 (no effect) to 100 (complete control), visual, 12 to 14 days, read-out: Plant response rating, Foxtail, Giant): 5%
- pest or weed control at 250 g/ha (giant foxtail; Setaria faberi, pre-emergence, 312 h, 250 g ai/ha, scale 0-100, read-out: Plant response rating, Foxtail, Giant): 90%
- pest or weed control at 500 g/ha (giant foxtail; Setaria faberi, pre-emergence, 312 h, 500 g ai/ha, scale 0 to 100 (0 no effect, 100 complete control), visual, 12 to 14 days, read-out: Plant response rating, Foxtail, Giant): 90%
- pest or weed control at 62 g/ha (yellow nutsedge; Cyperus, pre-emergence, 62 g ai/ha, preemergence, scale 0 to 100, read-out: Plant response rating, Nutsedge, Yellow): 0%
- pest or weed control at 125 g/ha (yellow nutsedge; Cyperus, pre-emergence, 125 g ai/ha, scale 0 (no effect) to 100 (complete control), visual, 12 to 14 days, read-out: Plant response rating, Nutsedge, Yellow): 5%
- pest or weed control at 250 g/ha (yellow nutsedge; Cyperus, pre-emergence, 250 g ai/ha, scale 0-100, read-out: Plant response rating, Nutsedge, Yellow): 20%
- pest or weed control at 500 g/ha (yellow nutsedge; Cyperus, pre-emergence, 500 g ai/ha, scale 0 to 100 (0 no effect, 100 complete control), visual, 12 to 14 days, read-out: Plant response rating, Nutsedge, Yellow): 60%
- pest or weed control at 62 g/ha ([2]; Helianthus annuus, pre-emergence, 62 g ai/ha, preemergence, scale 0 to 100, read-out: Plant response rating, Sunflower): 0%
- pest or weed control at 250 g/ha ([2]; Helianthus annuus, pre-emergence, 250 g ai/ha, scale 0-100, read-out: Plant response rating, Sunflower): 30%
- pest or weed control at 500 g/ha ([2]; Helianthus annuus, pre-emergence, 500 g ai/ha, scale 0 to 100 (0 no effect, 100 complete control), visual, 12 to 14 days, read-out: Plant response rating, Sunflower): 45%
- pest or weed control at 62 g/ha (morningglory; Ipomoea, pre-emergence, 62 g ai/ha, preemergence, scale 0 to 100, read-out: Plant response rating, Morningglory): 5%
- pest or weed control at 125 g/ha (morningglory; Ipomoea, pre-emergence, 125 g ai/ha, scale 0 (no effect) to 100 (complete control), visual, 12 to 14 days, read-out: Plant response rating, Morningglory): 70%
- pest or weed control at 250 g/ha (morningglory; Ipomoea, pre-emergence, 250 g ai/ha, scale 0-100, read-out: Plant response rating, Morningglory): 100%
- pest or weed control at 500 g/ha (morningglory; Ipomoea, pre-emergence, 500 g ai/ha, scale 0 to 100 (0 no effect, 100 complete control), visual, 12 to 14 days, read-out: Plant response rating, Morningglory): 100%
- pest or weed control at 62 g/ha (bermudagrass; Cynodon dactylon, pre-emergence, 312 h, 62 g ai/ha, preemergence, scale 0 to 100, 0 no effect, 100 complete control, read-out: Plant response rating, Bermudagrass): 95%
- pest or weed control at 125 g/ha (bermudagrass; Cynodon dactylon, pre-emergence, 312 h, 125 g ai/ha, scale 0 (no effect) to 100 (complete control), visual, 12 to 14 days, read-out: Plant response rating, Bermudagrass): 100%
- pest or weed control at 250 g/ha (bermudagrass; Cynodon dactylon, pre-emergence, 312 h, 250 g ai/ha, scale 0-100, read-out: Plant response rating, Bermudagrass): 100%
- pest or weed control at 500 g/ha (bermudagrass; Cynodon dactylon, pre-emergence, 312 h, 500 g ai/ha, scale 0 to 100 (0 no effect, 100 complete control), visual, 12 to 14 days, read-out: Plant response rating, Bermudagrass): 100%
- pest or weed control at 62 g/ha (velvetleaf; Abutilon theophrasti, pre-emergence, 62 g ai/ha, preemergence, scale 0 to 100, read-out: Plant response rating, Velvetleaf): 5%
- pest or weed control at 250 g/ha (velvetleaf; Abutilon theophrasti, pre-emergence, 250 g ai/ha, scale 0-100, read-out: Plant response rating, Velvetleaf): 100%
- pest or weed control at 500 g/ha (velvetleaf; Abutilon theophrasti, pre-emergence, 500 g ai/ha, scale 0 to 100 (0 no effect, 100 complete control), visual, 12 to 14 days, read-out: Plant response rating, Velvetleaf): 100%

SMILES: CCc1nn(C(C)(C)CC)nc1C(=O)Nc1cccc(C(=O)N(C)C)c1 [Compound 372]
- Barnyardgrass plant response rating (barnyardgrass; 62 g ai/ha, scale 0 to 100 (0 no effect, 100 complete control)): 65
- Barnyardgrass plant response rating (barnyardgrass; [3]): 70
- Barnyardgrass plant response rating (barnyardgrass; [4]): 75
- Plant response rating, Barnyardgrass (barnyardgrass; [5]): 80
- Plant response rating, Pigweed (pigweed; [6]): 85
- Plant response rating (0 = no effect, 100 = complete control), Pigweed (pigweed; 125 g ai/ha, preemergence): 95
- Plant response rating, Pigweed (pigweed; [7]): 100
- Plant response rating, Pigweed (pigweed; [8]): 100
- Plant response rating, Cocklebur (cocklebur; [6]): 0
- Plant response rating (0 = no effect, 100 = complete control), Cocklebur (cocklebur; 125 g ai/ha, preemergence): 10
- Plant response rating, Cocklebur (cocklebur; [7]): 60
- Plant response rating, Cocklebur (cocklebur; [8]): 90
- Sedge, Umbrella plant response rating ([1]; 62 g ai/ha, scale 0 to 100): 80
- Sedge, Umbrella plant response rating [1, 3]: 85
- Sedge, Umbrella plant response rating [1, 4]: 85
- Plant response rating, Sedge, Umbrella [1, 5]: 85
- Plant response rating, Soybean (soybean; [6]): 0
- Plant response rating (0 = no effect, 100 = complete control), Soybean (soybean; 125 g ai/ha, preemergence): 5
- Plant response rating, Soybean (soybean; [7]): 20
- Plant response rating, Soybean (soybean; [8]): 90
- Plant response rating, Foxtail, Giant (giant foxtail; [6]): 70
- Plant response rating (0 = no effect, 100 = complete control), Foxtail, Giant (giant foxtail; 125 g ai/ha, preemergence): 85
- Plant response rating, Foxtail, Giant (giant foxtail; [7]): 90
- Plant response rating, Foxtail, Giant (giant foxtail; [8]): 90
- Plant response rating, Nutsedge, Yellow (yellow nutsedge; [6]): 5
- Plant response rating (0 = no effect, 100 = complete control), Nutsedge, Yellow (yellow nutsedge; 125 g ai/ha, preemergence): 30
- Plant response rating, Nutsedge, Yellow (yellow nutsedge; [7]): 40
- Plant response rating, Nutsedge, Yellow (yellow nutsedge; [8]): 85
- Plant response rating, Sunflower [2, 6]: 0
- Plant response rating (0 = no effect, 100 = complete control), Sunflower ([2]; 125 g ai/ha, preemergence): 0
- Plant response rating, Sunflower [2, 7]: 0
- Plant response rating, Sunflower [2, 8]: 60
- Plant response rating, Morningglory (morningglory; [6]): 0
- Plant response rating (0 = no effect, 100 = complete control), Morningglory (morningglory; 125 g ai/ha, preemergence): 5
- Plant response rating, Morningglory (morningglory; [7]): 40
- Plant response rating, Morningglory (morningglory; [8]): 80
- Plant response rating, Bermudagrass (bermudagrass; 62 g ai/ha, preemergence, scale 0 to 100, 0 no effect, 100 complete control): 75
- Plant response rating (0 = no effect, 100 = complete control), Bermudagrass (bermudagrass; 125 g ai/ha, preemergence): 98
- Plant response rating, Bermudagrass (bermudagrass; [7]): 98
- Plant response rating, Bermudagrass (bermudagrass; [8]): 100
- Plant response rating, Velvetleaf (velvetleaf; [6]): 50
- Plant response rating (0 = no effect, 100 = complete control), Velvetleaf (velvetleaf; 125 g ai/ha, preemergence): 100
- Plant response rating, Velvetleaf (velvetleaf; [7]): 100
- Plant response rating, Velvetleaf (velvetleaf; [8]): 100
